Read-outs that look alike come from different tables or passages of the source.
Experiments:
[1] = tested on: SDMA in HCT116-MTAP-knockout cell line; assay: Cell symmetric dimethylarginine (SDMA) test, In-cell Western, HCT116-MTAP-knockout; type: cell-based; conditions: Homo sapiens, 96 h
[2] = tested on: HCT116-MTAP-knockout (−/−) cell strain; assay: Tumor cell proliferation inhibition assay (CellTiter-Glo), HCT116-MTAP-knockout (-/-); type: cell-based; conditions: Homo sapiens, 120 h, HCT116-MTAP-knockout (−/−) cells, 5-day treatment
In short: (§1)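 Cells seeded, then after 24 h treated with 10-point 1:3 dilutions from 10 μM top concentration, DMSO control. Cultured 5 days at 37 °C/5% CO2; growth inhibition from ATP level by CellTiter-Glo luminescence.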

Hut-78 cell strain = assay: Tumor cell proliferation inhibition assay (CellTiter-Glo), Hut-78; type: cell-based; conditions: Homo sapiens, HuT78, 120 h, Hut-78 cells, 5-day treatment
In short: as §1

hERG potassium current = molecular target: T1, hERG potassium current (Homo sapiens, UniProt Q12809); assay: hERG inhibition test (whole-cell patch clamp, Qpatch); type: cell-based; conditions: initial concentration 30 μM, 6 concentration points
T1 construct: expressed in transfected cells; host or cells: HEK293, cultured under G418 selection
Experimental: The BEK293 cells were cultured in a DiVEM medium containing […] and 0.8 mg/mL G418 at 37° C. with 5% o CO2. The cells were digested by TrypLE™ Express and centrifuged. The cell density was adjusted to 2×10^6 cells/mL. The cells were gently mixed for 15-20 min using a shaker equilibrated at room temperature, and subjected to patch clamping on a machine. The medium of the prepared cells was replaced with extracellular fluid. The intracellular fluid and the extracellular fluid were taken from the fluid pool, and respectively added to the intracellular fluid pool and the cell and the test substance pool of the QPlate chip. The voltage stimulation of the whole-cell hERG potassium current was recorded by the whole-cell patch clamp, and the test data was collected and stored by Qpatch. The compound was diluted 3-fold at an initial concentration of 30 μM, and 6 concentration points were set, with each drug concentration being set for two administrations over a period of at least 5 min. The current detected in compound-free extracellular fluid for each cell was served as its own control group, and the detection was repeated at least twice independently using two cells per concentration. All electrophysiological experiments were performed at room temperature.
For data analysis, the current acted for each drug concentration and the current of the blank control were standardized
and then the inhibition rate corresponding to each drug concentration was calculated
The mean and standard error were calculated for each concentration, and the half maximal inhibitory concentration of each compound was calculated:
The dose-dependent effect was fitted non-linearly using the above equation, wherein Y represents the inhibition rate, C represents the concentration of the test substance, IC50 is the half maximal inhibitory concentration, and HillSlope represents the Hill coefficient. Curve fitting and calculation of IC50 were performed by Graphpad software.

[3] = Pharmacokinetic test in mice (IV and PO); type: in vivo; conditions: BALB/c mice; for AUC / clearance / bioavailability / half-life / Vd: mouse, plasma; for half-life: read-out: T½ (converted); for Vd: read-out: Vz
[4] = Saturation solubility of samples in FaSSIF solution; type: physicochemical; conditions: FaSSIF pH 6.5, room temperature overnight
Experimental: About 0.21 g of sodium hydroxide, about 2.24 g of sodium dihydrogen phosphate dihydrate, and 3.09 g of sodium chloride were weighed out and dissolved in 500 mL of water, and then the pH was adjusted to 6.5 with 1 N sodium hydroxide or 1 N hydrochloric acid. 112 mg of FaSSIF solid was weighed out and placed in a 50 mL volumetric flask, and the above buffer was added for dissolution, diluted to volume, mixed well, and left to stand at room temperature for 2 h or more.
• Test sample: about 1 mg of the test sample was taken, and 1 mL of FaSSIF solution was added. The mixture was stirred at room temperature overnight and centrifuged, and the supernatant was collected and injected for analysis. • Control substance solution: about 1.5 mg of the test sample was precisely weighed out and placed in a 50 mL volumetric flask, and DMF was added for dissolution, diluted to volume, and mixed well.
• Mobile phase A: 1000 mL of purified water was accurately weighed out, 1 mL of formic acid was added, and the mixture was mixed well and degassed with ultrasonic. • Mobile phase B: acetonitrile
The peak of the main component of the control substance and the peak of the test substance consistent with the retention time of the peak of the main component of the control substance were integrated, and the concentration thereof in the FaSSIF solution was calculated according to external standard method.

[5] = IC50 score class, read-out: Cell 96 h SDMA Inhibition (HCT116-MTAP−/−) (score)
[6] = read-out: Cell 96 h SDMA Inhibition (HCT116-MTAP−/−)
[7] = IC50 score, read-out: Tumor cell 5-day relative growth inhibition (HCT116-MTAP−/−) (nM), score
[8] = IC50 value, read-out: Tumor cell 5-day relative growth inhibition (HCT116-MTAP−/−)
[9] = IC50 score, read-out: Tumor cell 5-day relative growth inhibition (Hut-78) (nM), score
[10] = IC50 value, read-out: Tumor cell 5-day relative growth inhibition (Hut-78)

T1 sequence (Q12809 whole entry): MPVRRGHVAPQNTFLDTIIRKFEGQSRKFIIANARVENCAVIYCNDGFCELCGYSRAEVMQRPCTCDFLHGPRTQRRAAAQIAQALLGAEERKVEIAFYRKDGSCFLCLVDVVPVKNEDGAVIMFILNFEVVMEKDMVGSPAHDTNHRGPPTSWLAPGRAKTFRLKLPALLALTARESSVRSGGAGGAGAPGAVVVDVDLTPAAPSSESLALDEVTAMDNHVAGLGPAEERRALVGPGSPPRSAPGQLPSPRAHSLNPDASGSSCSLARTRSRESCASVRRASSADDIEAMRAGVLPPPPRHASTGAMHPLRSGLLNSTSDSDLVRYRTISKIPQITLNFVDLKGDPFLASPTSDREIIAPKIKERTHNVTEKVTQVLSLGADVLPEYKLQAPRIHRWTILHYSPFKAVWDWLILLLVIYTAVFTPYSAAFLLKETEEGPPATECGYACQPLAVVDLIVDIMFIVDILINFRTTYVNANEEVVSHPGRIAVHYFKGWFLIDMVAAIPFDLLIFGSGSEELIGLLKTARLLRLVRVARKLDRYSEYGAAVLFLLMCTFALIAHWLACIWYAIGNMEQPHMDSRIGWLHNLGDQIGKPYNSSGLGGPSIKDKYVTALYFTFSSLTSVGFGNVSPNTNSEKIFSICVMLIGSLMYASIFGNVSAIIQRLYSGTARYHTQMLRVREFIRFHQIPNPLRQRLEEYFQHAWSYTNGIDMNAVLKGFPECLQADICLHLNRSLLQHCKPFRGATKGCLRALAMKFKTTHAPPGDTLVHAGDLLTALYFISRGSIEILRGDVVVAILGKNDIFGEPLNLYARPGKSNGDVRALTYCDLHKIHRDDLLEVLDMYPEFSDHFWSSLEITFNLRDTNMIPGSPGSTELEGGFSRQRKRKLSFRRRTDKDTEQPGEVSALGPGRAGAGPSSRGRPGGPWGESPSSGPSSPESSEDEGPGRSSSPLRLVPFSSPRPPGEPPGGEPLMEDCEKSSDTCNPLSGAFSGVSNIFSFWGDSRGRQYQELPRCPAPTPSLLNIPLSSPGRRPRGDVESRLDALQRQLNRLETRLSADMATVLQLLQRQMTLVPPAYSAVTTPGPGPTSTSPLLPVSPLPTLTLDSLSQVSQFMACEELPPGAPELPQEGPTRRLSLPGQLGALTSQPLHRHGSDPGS

SMILES | IC50 [1, 5] | IC50 [1, 6] | IC50 [2, 7] | IC50 [2, 8] | IC50 (Hut-78 cell strain; [9]) | IC50 (Hut-78 cell strain; [10]) | IC50 (hERG potassium current) | AUC (in words) ([3]; summary of Table 7) | half-life (T½) (in words) ([3]; summary of Table 7) | AUC ([3]; IV 2 mg/kg) | clearance ([3]; IV 2 mg/kg) | bioavailability ([3]; IV 2 mg/kg, PO 10 mg/kg) | half-life ([3]; IV 2 mg/kg) | Vd ([3]; IV 2 mg/kg) | AUC ([3]; PO 10 mg/kg) | half-life ([3]; PO 10 mg/kg) | FaSSIF (pH = 6.5) (μg/mL) [4] | other results
O=c1c2n[nH]cc2c2ccc(C(F)(F)F)nc2n1-c1cccnc1 [Compound B178] | < 200 nM | 37.1 nM | < 500 nM | 59.1 nM | < 500 nM | 184 nM | > 30000 nM | – | – | – | – | – | – | – | – | – | – | –
Cn1cc2c(n1)c(=O)n(-c1cccc(O)c1)c1nc(C(F)(F)F)ccc21 [Compound B148] | < 200 nM | 49.2 nM | – | – | < 500 nM | 135 nM | > 30000 nM | – | – | – | – | – | – | – | – | – | – | –
Cn1cc2c(n1)c(=O)n(-c1cccc3[nH]ncc13)c1cc(Cl)c(F)cc21 [Compound B257] | < 200 nM | 70 nM | < 500 nM | 27.5 nM | – | – | > 30000 nM | relatively high | relatively long | 49.8 µM·h | 0.917 mL/min/kg | 220% | 9.8 h | 0.8 L/kg | 2110 µM·h | 34.2 h | 248 μg/mL | –
Cn1cc2c(n1)c(=O)n(-c1cccc3[nH]ncc13)c1cc(Cl)ccc21 [Compound B60] | < 200 nM | 34.9 nM | < 500 nM | 12.6 nM | < 500 nM | 37.1 nM | > 40000 nM | relatively high | relatively long | 119 µM·h | 0.667 mL/min/kg | 115% | 10 h | 0.6 L/kg | 683 µM·h | 9 h | 20.9 μg/mL | –
Cc1ncccc1-n1c(=O)c2nn(C)cc2c2ccc(C(F)(F)F)nc21 (single isomer, unassigned) [Compound B180] | < 200 nM | 10.3 nM | < 500 nM | 9.6 nM | < 500 nM | 17.4 nM | > 30000 nM | – | – | 3.37 µM·h | 27.3 mL/min/kg | 274% | 0.16 h | 0.4 L/kg | 46.2 µM·h | 0.51 h | – | –
Cn1cc2c(n1)c(=O)n(-c1cccc3[nH]ncc13)c1cc(Cl)c(C#N)cc21 [Compound B258] | < 200 nM | 67.6 nM | < 500 nM | 235 nM | – | – | – | relatively high | relatively long | 21.4 µM·h | 2.08 mL/min/kg | – | 14.2 h | 2.6 L/kg | – | – | 131 μg/mL | tissue distribution (in words) ([3]; concluded from Vz, Table 7): good; Vz value (in words) ([3]; summary of Table 7): relatively high; bioavailability ([3]; IV 2 mg/kg, PO 5 mg/kg): 93%; AUC ([3]; PO 5 mg/kg): 80.7 µM·h; half-life ([3]; PO 5 mg/kg): 7.7 h
Cn1cc2c(n1)c(=O)n(-c1cccnc1C1CC1)c1cc(Cl)c(F)cc21 [Compound B340] | < 200 nM | 12 nM | < 500 nM | 394 nM | – | – | – | – | – | 46 µM·h | 1.83 mL/min/kg | – | 9.3 h | 1.58 L/kg | 219 µM·h | 7.7 h | 36 μg/mL | –
Cn1cc2c(n1)c(=O)n(-c1cccnc1)c1cc(Cl)ccc21 [Compound B12] | 200 to 1000 nM | 219 nM | < 500 nM | 383 nM | < 500 nM | 145 nM | > 30000 nM | – | – | 4.5 µM·h | 22.7 mL/min/kg | – | 0.98 h | 1.9 L/kg | 26.8 µM·h | 0.81 h | – | –
Cn1cc2c(n1)c(=O)n(-c1cccc3[nH]ncc13)c1nc(C(F)(F)F)ccc21 [Compound B181] | < 200 nM | 29 nM | < 500 nM | 14.6 nM | < 500 nM | 36.5 nM | > 30000 nM | relatively high | relatively long | 34.3 µM·h | 2.33 mL/min/kg | 131% | 7.3 h | 1.4 L/kg | 242 µM·h | 3.45 h | 20.7 μg/mL | –
Cn1cc2c(n1)c(=O)n(-c1ccccc1Cl)c1nc(C(F)(F)F)ccc21 [Compound B182] | < 200 nM | 176 nM | 500 to 2000 nM | 1860 nM | 500 to 2000 nM | 1220 nM | – | – | – | – | – | – | – | – | – | – | 17.6 μg/mL | –

From patent US20240391923A1, “METHIONINE ADENOSYLTRANSFERASE 2A INHIBITOR FOR TREATING MTAP DELETION-TYPE CANCER” (SUZHOU GENHOUSE BIO CO., LTD., priority 2022, published 2024)
